In one assay the test system is human Th9 CAR T cells. Put plainly: Granzyme B+ CAR Th9 cells from spleens after transfer (S9H-I). The format is in vivo, mouse. To be noted: for Proportion of GzmB⁺ cells in spleen: Supplemental Figure 9I. How it is done: For xenograft models, M-NSG mice were intravenously inoculated with 1 × 10^6 Raji-CD19 tumor cells. On day 5 after inoculation, 2 × 10^6 CD19-CAR Th9 cells were administered intravenously to evaluate in vivo therapeutic efficacy. Tumor progression and immune cell infiltration were subsequently monitored according to experimental endpoints.
Details regarding staining panels (human and mouse), reagents (including clones and catalog numbers), acquisition settings, compensation/controls, and analysis procedures are provided in Supplemental Methods. […]
Th9 CAR-T c e l l s (n = 3). (H and I) Flow-cytometric analysis of granzyme B⁺ CAR-
Th9 cells isolated from spleens after adoptive transfer, showing representative plots
(H) and quantification (I) (n = 5 mice per group). Statistical analysis was performed
using one-way ANOVA with Tukey’s post hoc test (A and B), or two-tailed unpaired
Student’s t-test (E–G, and I). Repeated data are presented as mean ± SEM. *p < 0.05,
(also on this page, place not known: TP cells ANOV A 30IL-9+ cells (%) Fato Fato Fato Fato A SSC GzmB CtrlEpA MFIofMitoTracker (×102) GF NormalizedATPlevel CtrlEpA 4MFI of Mito Tracker (×105) CtrlEpA0 GzmB+ cells (%) CD4 10 20 IL-9+ cells (%) Day60 10 20 30 Ctrl)

Assay [1] deals with Th9 cells. The assay can be described thus: Screening of 65 natural compounds for IL-9 production by Th9 cells (Figure 1B). To be noted: 10 μM; result in words. The format is cell-based, mouse. From the text: To identify natural small molecules that enhance the antitumor potential of Th9 cells, we constructed a chemically and structurally defined small-molecule library derived from endophytic fungi isolated from G. lucidum and Periplaneta americana (Supplemental Table 1; supplemental material available online with this article; https://doi.org/10.1172/JCI196907DS1). This library comprised 65 structurally diverse metabolites classified into 11 distinct scaffold families, with each compound structurally elucidated via NMR spectroscopy and verified against previously reported spectral data. To functionally evaluate the immunomodulatory potential of these compounds, we systematically screened the library for their ability to promote Th9 cell differentiation, assessed by intracellular IL-9 expression using flow cytometry (Figure 1, A and B).
Naive CD4^+ T cells were isolated from the spleens of C57BL/6J or CD45.1^+ OT-II mice using the MojoSort Mouse CD4 Naive T Cell Isolation Kit (BioLegend, catalog 480040), following the manufacturer’s protocol. Purified cells were cultured in RPMI-1640 medium supplemented with 10% FBS, 1% penicillin-streptomycin, and 0.1% β-mercaptoethanol (Gibco, catalog 21985023). […]

In assay [2] the test system is Th9 cells. The assay can be described thus: Seahorse extracellular acidification rate, glycolysis stress test (Figure 4B-D). The format is cell-based, mouse. Also on record: basal glycolysis of seahorse extracellular flux: unit not given here. On the procedure:
After stimulation, cells were washed, resuspended in Seahorse XF assay medium (Agilent Technologies; pH 7.40–7.45, catalog 103576-100) and seeded at 5 × 10^5 cells per well in Seahorse XF96 microplates. Plates were centrifuged at 400 × g for 5 minutes to promote adherence and monolayer formation, and all conditions were tested in quadruplicate.
Glycolytic activity was measured on a Seahorse XFe96 Extracellular Flux Analyzer (Agilent Technologies) using the XFe96 Glycolysis Stress Test kit (Agilent Technologies, catalog 103020-100) per the manufacturer’s instructions. Sequential injections of glucose (10 mM), oligomycin (1 μM), and 2-deoxyglucose (2-DG; 50 mM) were administered to determine ECAR as a proxy for glycolytic function. A glycolytic index was calculated from ECAR values obtained before and after each injection.

Setting [3] is: EpA 10 μM, 4 days, result in words.

Results on 1 substance are retold here after article PMC12867150, “A fungi-derived cyclic peptide enhances Th9-mediated antitumor immunity by targeting ZAP70 and SREBP1” (The Journal of Clinical Investigation, 2025).

Values joined by “and” are separate entries in the source; they are usually repeats but may differ in a detail not shown here. Identical values can stand only once.

For anteiso-C15 Leu7 surfactin [EpA], the “granzyme B levels in CAR T cells after transfer” value in the assay with human Th9 CAR T cells (result in words) is on record as “elevated”. Besides, the “Proportion of GzmB⁺ cells in spleen” value in the assay on human Th9 CAR T cells (replicate 1) was found to be 22.5; in the assay with human Th9 CAR T cells (replicate 2) it was 28.9; in the assay on human Th9 CAR T cells (replicate 3), 40.8; with human Th9 CAR T cells (replicate 4), 84.4; with human Th9 CAR T cells (replicate 5) it was 47.4. The “granzyme B+ CAR Th9 gate number” value with human Th9 CAR T cells (spleens after transfer, representative flow plot, Figure S9H) was 47.4. Further, the “Th9 polarization in screen” value in the assay on Th9 cells [1] is listed as “most potent enhancer of Th9 polarization”. The “basal and maximal ECAR” value in the assay with Th9 cells [2] (setting [3]) is “significantly elevated”. Further, the “extracellular acidification rate (ECAR)” value in the assay with Th9 cells [2] (setting [3]) is listed as “marked increase”. The “basal glycolysis of seahorse extracellular flux” value with Th9 cells [2] (Figure 4C, individual replicates, n = 6) was 3.18 and 3.13 and 4.92 and 4.79 and 3.98 and 4.85. For the same substance, the “max glycolytic capacity of seahorse extracellular flux” value in the assay on Th9 cells [2] (Figure 4D, individual replicates, n = 6, in mpH/min (unit assumed)) is 34.82 and 36.26 and 48.55 and 43.93 and 34.44 and 51.9.
